Data published in article PMC5041457, “Synergy and antagonism in regulation of recombinant human INO80 chromatin remodeling complex” (Nucleic Acids Research, 2016).

Experiments:
[1] = target: T1, hIno80 core complex (wild type) (Homo sapiens, UniProt Q9ULG1); assay: coupled NADH fluorescence ATPase assay (PK/LDH); format: biochemical; set-up: gene INO80; nine-subunit core, Ino80 267-1556 with N-terminal 8-His and C-terminal twin Strep-tag II; codon-optimised genes, BTI-TN-5B1-4 insect cells (MultiBac); calculated 743583 Da, SEC-MALS 802 kDa; actin gene not specified; Actin-like protein 6A; Actin-related protein 5; Actin-related protein 8; INO80 complex subunit B; INO80 complex subunit C; RuvB-like 1; RuvB-like 2; conditions: 100 nM H2A nucleosome, ATP varied, 5 mM Mg2+, 37°C; non-competitive with ATP, competitive with nucleosomes; allosteric
SC2 = target: T2, SC2 (Homo sapiens, UniProt Q9ULG1); assay: coupled NADH fluorescence ATPase assay (PK/LDH); format: biochemical; conditions: 1 mM ATP, 100 nM nucleosome, 37°C
T2 construct: gene INO80; insect cells; with RuvB-like 1; RuvB-like 2
T2 sequence (Q9ULG1 487-1556): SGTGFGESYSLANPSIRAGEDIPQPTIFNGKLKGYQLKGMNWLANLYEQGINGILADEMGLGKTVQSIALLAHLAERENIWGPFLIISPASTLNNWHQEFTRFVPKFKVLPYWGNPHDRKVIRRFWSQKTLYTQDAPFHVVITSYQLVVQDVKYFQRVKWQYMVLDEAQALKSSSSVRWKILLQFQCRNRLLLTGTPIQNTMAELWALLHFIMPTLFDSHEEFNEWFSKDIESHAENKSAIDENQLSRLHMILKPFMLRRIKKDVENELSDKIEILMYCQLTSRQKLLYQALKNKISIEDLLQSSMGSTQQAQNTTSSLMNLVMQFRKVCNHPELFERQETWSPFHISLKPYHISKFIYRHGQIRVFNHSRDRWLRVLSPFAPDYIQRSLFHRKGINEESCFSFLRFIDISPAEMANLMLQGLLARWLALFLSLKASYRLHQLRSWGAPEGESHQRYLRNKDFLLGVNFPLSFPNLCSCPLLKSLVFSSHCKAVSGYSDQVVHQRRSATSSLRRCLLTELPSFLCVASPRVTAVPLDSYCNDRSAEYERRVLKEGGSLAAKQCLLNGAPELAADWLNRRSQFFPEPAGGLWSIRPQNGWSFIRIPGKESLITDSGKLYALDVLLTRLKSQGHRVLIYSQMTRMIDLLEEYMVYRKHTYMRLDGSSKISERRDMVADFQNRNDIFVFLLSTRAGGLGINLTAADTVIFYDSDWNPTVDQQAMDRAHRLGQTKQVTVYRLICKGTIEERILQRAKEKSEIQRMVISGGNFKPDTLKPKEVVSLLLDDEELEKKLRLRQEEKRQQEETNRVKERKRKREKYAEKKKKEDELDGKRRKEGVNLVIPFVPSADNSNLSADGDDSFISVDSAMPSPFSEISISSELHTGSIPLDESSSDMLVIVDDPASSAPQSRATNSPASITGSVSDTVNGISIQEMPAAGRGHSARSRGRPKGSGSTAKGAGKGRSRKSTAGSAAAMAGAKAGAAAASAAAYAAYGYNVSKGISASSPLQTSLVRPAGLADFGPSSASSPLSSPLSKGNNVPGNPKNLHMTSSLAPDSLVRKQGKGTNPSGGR
T2 sequence (Q9Y265 whole entry partner): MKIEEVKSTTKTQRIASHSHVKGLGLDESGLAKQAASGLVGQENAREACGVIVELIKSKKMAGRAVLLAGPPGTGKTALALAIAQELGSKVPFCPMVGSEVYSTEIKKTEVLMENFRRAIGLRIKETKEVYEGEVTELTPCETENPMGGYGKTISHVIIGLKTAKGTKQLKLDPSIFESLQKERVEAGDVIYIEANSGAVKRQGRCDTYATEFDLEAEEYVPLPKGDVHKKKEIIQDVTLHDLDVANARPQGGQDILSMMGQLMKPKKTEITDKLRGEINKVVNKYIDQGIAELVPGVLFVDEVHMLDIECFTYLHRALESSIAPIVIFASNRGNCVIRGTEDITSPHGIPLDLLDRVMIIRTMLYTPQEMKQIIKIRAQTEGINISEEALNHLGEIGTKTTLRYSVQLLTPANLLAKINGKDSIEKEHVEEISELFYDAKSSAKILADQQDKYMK
T2 sequence (Q9Y230 2-463 partner): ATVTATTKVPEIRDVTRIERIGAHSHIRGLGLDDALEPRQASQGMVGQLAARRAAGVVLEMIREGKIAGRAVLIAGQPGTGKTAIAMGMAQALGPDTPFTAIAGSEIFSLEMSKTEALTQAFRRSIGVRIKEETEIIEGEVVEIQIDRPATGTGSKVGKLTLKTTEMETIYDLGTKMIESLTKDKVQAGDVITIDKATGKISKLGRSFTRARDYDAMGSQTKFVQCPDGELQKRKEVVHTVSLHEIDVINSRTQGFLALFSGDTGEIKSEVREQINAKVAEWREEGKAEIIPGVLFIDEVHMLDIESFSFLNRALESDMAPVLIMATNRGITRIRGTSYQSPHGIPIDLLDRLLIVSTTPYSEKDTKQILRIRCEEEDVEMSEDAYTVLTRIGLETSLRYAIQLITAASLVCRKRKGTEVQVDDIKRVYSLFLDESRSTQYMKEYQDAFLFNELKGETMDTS

hIno80ΔIes2 complex = target: T3, hIno80ΔIes2 complex (Homo sapiens, UniProt Q9ULG1); conditions: basal, no nucleosome; ATP:MgCl2:TRIS base 1:1:2; 37°C
T3 construct: gene INO80

[2] = target: T1, hIno80 core complex (wild type); set-up: gene INO80; conditions: basal, no nucleosome; ATP:MgCl2:TRIS base 1:1:2; 37°C
Source text: coupled NADH fluorescence ATPase assay (PK/LDH) on hIno80 core complex (wild type)

Ki [1] [µM]	Km (hIno80ΔIes2 complex) [µM]	Km [2] [µM]	Compound	coupled NADH fluorescence ATPase assay (PK/LDH) (SC2)
37 ± 4			O=P(O)(O)O[C@H]1[C@H](OP(=O)(O)O)[C@@H](OP(=O)(O)O)[C@H](OP(=O)(O)O)[C@@H](OP(=O)(O)O)[C@H]1OP(=O)(O)O [IP6]	
	326 ± 44	171 ± 55	Nc1ncnc2c1ncn2[C@@H]1O[C@H](COP(=O)(O)OP(=O)(O)OP(=O)(O)O)[C@@H](O)[C@H]1O [ATP]	Single point inhibition of Ino80 and SC2.
